# Assay results reported in paper PMC8291497 (ACS Chemical Biology, 2021).
# Positions count from the first letter of the chain named. Where no end group is shown, it is not given here. The star is where a group is joined. Dansyl = CN(C)c1cccc2c(S(=O)(=O)*)cccc12; TAMRA = carboxytetramethylrhodamine
# T1: Mint2 PARM 364-570 (Y524W), pWT PARM (PTB domain and ARM linker) (Homo sapiens, UniProt Q99767, Y524W)
# T1 construct: made in house; host or cells: Escherichia coli BL21(DE3)pLysS
# T1 sequence (Q99767 364-570 Y524W): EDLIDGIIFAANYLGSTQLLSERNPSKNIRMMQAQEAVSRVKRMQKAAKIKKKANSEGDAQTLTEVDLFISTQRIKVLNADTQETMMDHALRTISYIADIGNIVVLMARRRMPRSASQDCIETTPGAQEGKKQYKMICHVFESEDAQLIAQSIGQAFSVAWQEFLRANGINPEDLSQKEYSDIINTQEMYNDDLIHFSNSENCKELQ
# T2: Mint2 PTB 364-538 (without the ARM linker) (Homo sapiens, UniProt Q99767, Y524W)
# T2 construct: made in house; host or cells: Escherichia coli BL21(DE3)pLysS
# T2 sequence (Q99767 364-538 Y524W): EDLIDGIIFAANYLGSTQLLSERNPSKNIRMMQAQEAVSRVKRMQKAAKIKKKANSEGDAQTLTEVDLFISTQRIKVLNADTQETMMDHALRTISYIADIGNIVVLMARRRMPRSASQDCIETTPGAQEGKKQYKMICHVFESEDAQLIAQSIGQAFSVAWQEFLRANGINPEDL
# T3: Mint2 PARM 364-570 (Y524W, Y543A) (Homo sapiens, UniProt Q99767, Y524W/Y543A)
# T3 sequence (Q99767 364-570 Y524W/Y543A): T1 sequence (Q99767 364-570 Y524W) with Y180A
# T4: Mint2 PARM 364-570 (Y524W, Y543E) (Homo sapiens, UniProt Q99767, Y524W/Y543E)
# T4 sequence (Q99767 364-570 Y524W/Y543E): T1 sequence (Q99767 364-570 Y524W) with Y180E
# Tests used:
# [1] = target: T1, Mint2 PARM 364-570 (Y524W), pWT PARM (PTB domain and ARM linker); assay: Stopped flow binding kinetics, APP peptides to PARM (pseudo-wild type)
# Protocol: (§1) Kinetic binding rate constants were obtained using an upgraded SX17 stopped flow spectrometer (Applied Photophysics), and all experiments were conducted at 25 °C in 500 mM NaCl and 25 mM HEPES (pH 7.4). The relatively high NaCl concentration was used to improve the solubility of the proteins. The change in tryptophan fluorescence was measured using a band-pass filter (excitation at 280 nm and emission at 330 ± 30 nm) when mixing varying concentrations (2–50 μM) of the dansyl peptides with 1 μM protein or 0.5 μM semisynthetic proteins. […] For PTB variants, we used the kobs value from the fast kinetic phase for the analysis. […] We report the errors in kon and koff from the curve fitting. […] For these koff determinations, we report the standard error of the mean of three replicates. Φ values were defined as ΔΔGTS/ΔΔGeq, where ΔΔGTS = RT ln(kon^WT/kon^mut.) and ΔΔGeq = RT ln(Kd^mut./Keq^WT). Calculated coupling free energies were defined as ΔΔΔGEq = RT ln(Kd^mut.:WTKd^WT:mut./Kd^WT:WTKd^mut.:mut.) or ΔΔΔGTS = RT ln(kon^WT:WTkon^mut.:mut./kon^mut.:WTkon^WT:mut.) as previously described.[27] Propagated errors are reported.
# [2] = target: T2, Mint2 PTB 364-538 (without the ARM linker); assay: Stopped flow binding kinetics, APP peptides to PTB
# Protocol: as §1
# [3] = target: Mint2 PARMWT 364-570 (Homo sapiens, UniProt Q99767); assay: biochemical
# [4] = target: T3, Mint2 PARM 364-570 (Y524W, Y543A); assay: biochemical
# [5] = target: T4, Mint2 PARM 364-570 (Y524W, Y543E); assay: biochemical
# [6] = target: Mint2 PTB 364-538 (Homo sapiens, UniProt Q99767, Y524W); assay: biochemical
# [7] = target: T3, Mint2 PARM 364-570 (Y524W, Y543A); assay: Stopped flow binding kinetics, APP peptides to PARM^Y543A; design: made in house; host or cells: Escherichia coli BL21(DE3)pLysS
# Protocol: as §1
# [8] = target: Mint2 PARM 364-570 (Y524W) (Homo sapiens, UniProt Q99767, Y524W); assay: biochemical
# [9] = target: T4, Mint2 PARM 364-570 (Y524W, Y543E); assay: Stopped flow binding kinetics, APP peptides to PARM^Y543E; design: made in house; host or cells: Escherichia coli BL21(DE3)pLysS
# Protocol: as §1
# [10] = target: T5, pseudo-wild type (pWT) PARM domain of Mint2 (residues 364-570, Y524W) (human, UniProt Q99767 364-570, Y524W); assay: fluorescence polarisation; conditions: both partners purified
# [11] = target: T6, PARM^WT (Mint2 residues 364-570) (human, UniProt Q99767 364-570); assay: fluorescence polarisation; conditions: both partners purified
# [12] = target: T5, pseudo-wild type (pWT) PARM domain of …; assay: stopped-flow fluorescence kinetics; conditions: both partners purified
# [13] = target: T6, PARM^WT (Mint2 residues 364-570); assay: stopped-flow fluorescence kinetics; conditions: both partners purified
# [14] = target: PARM^Y543A (human, UniProt Q99767 364-570, Y524W | Y543A); assay: stopped-flow fluorescence kinetics; conditions: both partners purified
# [15] = target: PARM^Y543E (human, UniProt Q99767 364-570, Y524W | Y543E); assay: stopped-flow fluorescence kinetics; conditions: both partners purified
# [16] = target: PTB without the ARM linker (Mint2 residues 364-538) (human, UniProt Q99767 364-538, Y524W); assay: stopped-flow fluorescence kinetics; conditions: both partners purified
# [17] = target: PARM^WT (human Mint2 PTB domain with ARM linker, residues 364-570, no Y524W) (human, UniProt Q99767 364-570); assay: fluorescence polarisation; conditions: both partners purified
# [18] = target: PARM, pseudo-wild type (human Mint2 364-570, Y524W) (human, UniProt Q99767 364-570, Y524W); assay: fluorescence polarisation; conditions: both partners purified
# [19] = target: PARM^Y543A (human Mint2 364-570, Y524W, Y543A) (human, UniProt Q99767 364-570, Y524W | Y543A); assay: fluorescence polarisation; conditions: both partners purified
# [20] = target: PARM^Y543E (human Mint2 364-570, Y524W, Y543E) (human, UniProt Q99767 364-570, Y524W | Y543E); assay: fluorescence polarisation; conditions: both partners purified
# PARM^Y543E (human Mint2 364-570, Y524W, Y543E), sequence (Q99767 364-570 Y524W/Y543E): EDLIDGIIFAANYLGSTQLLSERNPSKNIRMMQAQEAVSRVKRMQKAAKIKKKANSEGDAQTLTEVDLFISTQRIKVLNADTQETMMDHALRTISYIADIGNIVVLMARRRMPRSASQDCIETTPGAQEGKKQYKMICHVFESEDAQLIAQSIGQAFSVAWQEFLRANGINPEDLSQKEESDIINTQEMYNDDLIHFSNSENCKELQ
# [21] = target: PTB (human Mint2 PTB domain without the ARM linker, residues 364-538, Y524W) (human, UniProt Q99767 364-538, Y524W); assay: fluorescence polarisation; conditions: both partners purified
molecule,measurement,setting,value
C[C@@H](O)[C@H](NC(=O)[C@@H]1CCCN1C(=O)[C@H](CC(N)=O)NC(=O)[C@H](CCC(=O)O)NC(=O)[C@H](Cc1ccc(O)cc1)NC(=O)CNC(=O)[C@H](CC(N)=O)NC(=O)CNC(=O)[C@H](CC(N)=O)NC(=O)[C@H](CC(N)=O)NS(=O)(=O)c1cccc2c(N(C)C)cccc12)C(=O)N[C@@H](Cc1ccc(O)cc1)C(=O)N[C@@H](CCCCN)C(=O)N[C@@H](Cc1ccccc1)C(=O)N[C@@H](Cc1cccc2ccccc12)C(=O)N[C@@H](CCC(=O)O)C(=O)O [Peptide F765Nal1],Kd,[1],1500 nM
same,Kd,[2],120 nM
same,Ki,[3],2600 nM
same,Ki,[4],1000 nM
same,Ki,[5],1100 nM
same,Ki,[6],560 nM
same,Kd,[7],500 nM
C[C@@H](O)[C@H](NC(=O)[C@@H]1CCCN1C(=O)[C@H](CC(N)=O)NC(=O)[C@H](CCC(=O)O)NC(=O)[C@H](Cc1ccc(O)cc1)NC(=O)CNC(=O)[C@H](CC(N)=O)NC(=O)CNC(=O)[C@H](CC(N)=O)NC(=O)[C@H](CC(N)=O)NS(=O)(=O)c1cccc2c(N(C)C)cccc12)C(=O)N[C@@H](Cc1ccc(O)cc1)C(=O)N[C@@H](CCCCN)C(=O)N[C@@H](Cc1cccc2ccccc12)C(=O)N[C@@H](Cc1ccccc1)C(=O)N[C@@H](CCC(=O)O)C(=O)O [Peptide F764Nal1],Kd,[1],1100 nM
same,kon,[1]; pH 7.4,1.2e+06 M⁻¹ s⁻¹
same,koff,"[1]; stopped flow, same buffer, 25 °C, from fit of kobs vs peptide concentration, or displacement with 50–150 µM APP^WT when not well-defined",1.3 s⁻¹
same,Kd,[2],70 nM
same,koff,[2],2.3 s⁻¹
same,kon,[2]; pH 7.4,3.1e+07 ± 1e+06 M⁻¹ s⁻¹
same,Ki,[3],1300 nM
same,Ki,[8],500 nM
same,Ki,[4],500 nM
same,Ki,[5],470 ± 30 nM
same,Ki,[6],290 nM
same,Kd,[7],490 nM
same,koff,[7],1.3 s⁻¹
same,kon,[7]; pH 7.4,2.5e+06 M⁻¹ s⁻¹
same,Kd,[9],430 nM
same,koff,[9],1.2 s⁻¹
same,kon,[9]; pH 7.4,2.9e+06 M⁻¹ s⁻¹
C[C@H](NC(=O)[C@H](CC(N)=O)NC(=O)[C@H](CCC(=O)O)NC(=O)[C@H](Cc1ccc(O)cc1)NC(=O)CNC(=O)[C@H](CC(N)=O)NC(=O)CNC(=O)[C@H](CC(N)=O)NC(=O)[C@H](CC(N)=O)NS(=O)(=O)c1cccc2c(N(C)C)cccc12)C(=O)N[C@H](C(=O)N[C@@H](Cc1ccc(O)cc1)C(=O)N[C@@H](CCCCN)C(=O)N[C@@H](Cc1ccccc1)C(=O)N[C@@H](Cc1ccccc1)C(=O)N[C@@H](CCC(=O)O)C(=O)O)[C@@H](C)O [Peptide P760A],Ki,[8],40000 ± 800 nM
{TAMRA}-NNGNGYENPTYKFFE [(TAMRA)-NNG-NGYENPTYKFFE],binding result,[10],binds
same,binding result,[11],binds
Dansyl-NGYENPTYKFFE [dansyl-APP^WT],koff,[12],2.3 ± 0.08 s⁻¹
same,kon,[12],390000 ± 4000 M⁻¹ s⁻¹
same,koff,[13],1.2 ± 0.05 s⁻¹
same,kon,[13],380000 ± 3000 M⁻¹ s⁻¹
same,fold increase in kon against PARM,[14],2.5 fold
same,koff,[14],~2 s⁻¹
same,fold increase in kon against PARM,[15],2.5 fold
same,koff,[15],~2 s⁻¹
same,koff,[16],~2 s⁻¹
same,kon,[16],1.1e+07 M⁻¹ s⁻¹
same,ratio of Kd values for PARM and PTB,[16],0.057
"NGYENPTYKFFE [APP^WT 12-mer (NGYENPTYKFFE), unlabelled]",Ki,[17],3200 nM
same,Ki,[18],3500 nM
same,Ki,[19],1100 nM
same,Ki,[20],1100 nM
same,Ki,[21],740 nM
